Paper PMC2766259 (Synapse (New York, N.Y.), 2009)
Where two headings read alike, the source gives them in different places.

Tests used:
[1] = 5-[^123I]IA SPECT of the living human brain, VOI kinetic analysis; format: in vivo, Humans (Homo sapiens); conditions: human, intravenous
[2] = molecular target: high-affinity α4β2* neuronal nicotinic acetylcholine receptors (nAChRs) (Homo sapiens, UniProt P17787+P43681); experiment: as above; format: in vivo, Humans (Homo sapiens)
[3] = Plasma metabolite analysis by column-switch HPLC after intravenous 5-[^123I]IA; format: in vivo, Humans (Homo sapiens); conditions: drawn simultaneously 30 minutes or later after administration
[4] = Safety and tolerability monitoring after intravenous 5-[^123I]IA; format: in vivo, Humans (Homo sapiens)
α4β2* nAChRs [5] = conditions: in rats; ref Saji et al., 2002; cited from earlier work
α4β2* nAChRs [6] = conditions: in rats; ref Saji et al., 2002; cited from earlier work; remark: listed apart in the source
α4β2* nAChRs [7] = conditions: ref Chefer et al., 1998; cited from earlier work
α4β2* nAChRs [8] = conditions: ref Saji et al., 2002; cited from earlier work
α4β2* nAChRs [9] = conditions: cited from earlier work
α4β2* nAChRs [10] = conditions: cited from earlier work; remark: listed apart in the source
α4β2* nAChRs [11] = conditions: pigs, CI; ref Brust et al., 2008; cited from earlier work

Chain of high-affinity α4β2* neuronal nicotinic acetylcholine receptors (nAChRs) (P43681 29-627 limits assumed): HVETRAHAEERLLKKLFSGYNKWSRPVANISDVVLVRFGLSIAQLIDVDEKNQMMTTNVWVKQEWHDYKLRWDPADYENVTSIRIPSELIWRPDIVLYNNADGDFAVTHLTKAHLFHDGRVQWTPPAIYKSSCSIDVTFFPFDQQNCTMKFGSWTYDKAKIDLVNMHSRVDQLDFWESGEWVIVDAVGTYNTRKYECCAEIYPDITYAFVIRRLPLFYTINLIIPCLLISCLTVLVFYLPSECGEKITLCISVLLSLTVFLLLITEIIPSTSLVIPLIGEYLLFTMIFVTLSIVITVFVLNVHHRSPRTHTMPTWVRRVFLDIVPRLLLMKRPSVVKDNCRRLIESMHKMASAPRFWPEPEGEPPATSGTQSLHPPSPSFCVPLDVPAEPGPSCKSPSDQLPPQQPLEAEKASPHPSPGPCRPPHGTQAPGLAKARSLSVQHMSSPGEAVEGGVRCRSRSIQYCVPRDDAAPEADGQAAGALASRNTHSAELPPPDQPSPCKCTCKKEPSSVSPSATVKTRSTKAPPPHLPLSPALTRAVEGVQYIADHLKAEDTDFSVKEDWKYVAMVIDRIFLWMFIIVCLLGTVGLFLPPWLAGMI
Chain of high-affinity α4β2* neuronal nicotinic acetylcholine receptors (nAChRs) (P17787 26-502): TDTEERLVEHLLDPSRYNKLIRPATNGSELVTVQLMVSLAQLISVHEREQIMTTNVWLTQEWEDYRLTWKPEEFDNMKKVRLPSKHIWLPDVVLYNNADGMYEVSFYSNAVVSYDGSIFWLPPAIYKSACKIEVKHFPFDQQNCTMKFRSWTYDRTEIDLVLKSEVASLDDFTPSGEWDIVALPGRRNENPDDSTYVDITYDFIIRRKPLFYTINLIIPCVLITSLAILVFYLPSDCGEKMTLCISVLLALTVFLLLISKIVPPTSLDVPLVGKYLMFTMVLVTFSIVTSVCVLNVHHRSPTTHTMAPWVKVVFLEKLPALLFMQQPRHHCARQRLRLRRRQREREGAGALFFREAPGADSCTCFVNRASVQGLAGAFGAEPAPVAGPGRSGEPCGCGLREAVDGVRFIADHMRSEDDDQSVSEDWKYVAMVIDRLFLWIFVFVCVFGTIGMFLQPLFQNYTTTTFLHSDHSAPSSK

Question: Which results are given for `[123I]c1cncc(OC[C@@H]2CCN2)c1` [5-[^123I]IA, (S)-5-[^123I]iodo-3-(2-azetidinylmethoxy)pyridine]?
Answer: Kp ([1]; brain (cortex), 8.1 mCi, Distribution volume (DV), Cortex, subject 1, bolus): 12.8; Kp ([1]; brain (cortex), 8.8 mCi, Distribution volume (DV), Cortex, subject 4, bolus): 7.62; Kp ([1]; brain (cortex), 9.3 mCi, Distribution volume (DV), Cortex, subject 3, bolus): 13; Kp ([1]; brain (frontal lobe), 8.1 mCi, Distribution volume (DV), Frontal lobe, subject 1, bolus): 9.6; Kp ([1]; brain (frontal lobe), 8.8 mCi, Distribution volume (DV), Frontal lobe, subject 4, bolus): 5.46; Kp ([1]; brain (frontal lobe), 9.3 mCi, Distribution volume (DV), Frontal lobe, subject 3, bolus): 8.56; Kp ([1]; brain (fusiform gyrus), 8.1 mCi, Distribution volume (DV), Fusiform gyrus, subject 1, bolus): 9.34; Kp ([1]; brain (fusiform gyrus), 8.8 mCi, Distribution volume (DV), Fusiform gyrus, subject 4, bolus): 5.68; Kp ([1]; brain (fusiform gyrus), 9.3 mCi, Distribution volume (DV), Fusiform gyrus, subject 3, bolus): 9.58; Kp ([1]; brain (hippocampus), 8.1 mCi, Distribution volume (DV), Hippocampus, subject 1, bolus): 13.5; Kp ([1]; caudate head, Median DV of high plasma nicotine group, Caudate head, six volunteers): 13.7; Kp ([1]; caudate head, Median DV of low plasma nicotine group, Caudate head, six volunteers): 21.9; Kp ([1]; cerebellum, 8.1 mCi, Distribution volume (DV), subject 1, bolus): 8.71; Kp ([1]; cerebellum, 8.8 mCi, Distribution volume (DV), subject 4, bolus): 5.4; Kp ([1]; cerebellum, 9.3 mCi, Distribution volume (DV), subject 3, bolus): 9.88; Kp ([1]; cingulate cortex, Median DV of high plasma nicotine group, Cingulate cortex, six volunteers): 12.6; Kp ([1]; cingulate cortex, Median DV of low plasma nicotine group, Cingulate cortex, six volunteers): 21.4; Kp ([1]; cingulate gyrus, 8.1 mCi, Distribution volume (DV), subject 1, bolus): 12.6; Kp ([1]; cingulate gyrus, 8.8 mCi, Distribution volume (DV), subject 4, bolus): 7.55; Kp ([1]; cingulate gyrus, 9.3 mCi, Distribution volume (DV), subject 3, bolus): 12.4; Kp ([1]; frontal cortex, Median DV of high plasma nicotine group, Frontal cortex, six volunteers): 9.6; Kp ([1]; frontal cortex, Median DV of low plasma nicotine group, Frontal cortex, six volunteers): 18; Kp ([1]; fusiform gyrus, Median DV of high plasma nicotine group, Fusiform gyrus, six volunteers): 9.46; Kp ([1]; fusiform gyrus, Median DV of low plasma nicotine group, Fusiform gyrus, six volunteers): 19.9; Kp ([1]; head of the caudate nucleus, 8.1 mCi, Distribution volume (DV), Caudate head, subject 1, bolus): 13.7; Kp ([1]; head of the caudate nucleus, 8.8 mCi, Distribution volume (DV), Caudate head, subject 4, bolus): 7.75; Kp ([1]; head of the caudate nucleus, 9.3 mCi, Distribution volume (DV), Caudate head, subject 3, bolus): 13.1; Kp ([1]; hippocampus, 8.8 mCi, Distribution volume (DV), subject 4, bolus): 8.32; Kp ([1]; hippocampus, 9.3 mCi, Distribution volume (DV), subject 3, bolus): 14.4; Kp ([1]; occipital cortex, Median DV of high plasma nicotine group, Occiptal cortex, six volunteers): 7.15; Kp ([1]; occipital cortex, Median DV of low plasma nicotine group, Occiptal cortex, six volunteers): 14.2; Kp ([1]; occipital lobe, 8.1 mCi, Distribution volume (DV), Occiptal lobe, subject 1, bolus): 7; Kp ([1]; occipital lobe, 8.8 mCi, Distribution volume (DV), Occiptal lobe, subject 4, bolus): 4.17; Kp ([1]; occipital lobe, 9.3 mCi, Distribution volume (DV), Occiptal lobe, subject 3, bolus): 7.15; Kp ([1]; parietal cortex, Median DV of high plasma nicotine group, Parietal cortex, six volunteers): 9.78; Kp ([1]; parietal cortex, Median DV of low plasma nicotine group, Parietal cortex, six volunteers): 17; Kp ([1]; parietal lobe, 8.1 mCi, Distribution volume (DV), subject 1, bolus): 9.78; Kp ([1]; parietal lobe, 8.8 mCi, Distribution volume (DV), subject 4, bolus): 5.17; Kp ([1]; parietal lobe, 9.3 mCi, Distribution volume (DV), subject 3, bolus): 8.71; Kp ([1]; pons, 8.1 mCi, Distribution volume (DV), subject 1, bolus): 15.1; Kp ([1]; pons, 8.8 mCi, Distribution volume (DV), subject 4, bolus): 9.23; Kp ([1]; pons, 9.3 mCi, Distribution volume (DV), subject 3, bolus): 20.4; Kp ([1]; putamen, 8.8 mCi, Distribution volume (DV), subject 4, bolus): 8.74; Kp ([1]; putamen, 9.3 mCi, Distribution volume (DV), subject 3, bolus): 15.6; Kp ([1]; temporal cortex, Median DV of high plasma nicotine group, Temporal cortex, six volunteers): 8.39; Kp ([1]; temporal cortex, Median DV of low plasma nicotine group, Temporal cortex, six volunteers): 15; time of maximal cerebellar uptake ([2]; after injection): 40 min; time of peak thalamic uptake ([2]; after injection): approximately 140 minutes; brain uptake ([2]; living human brain): good brain uptake; reversibility of binding ([2]; time activity curves): reversible binding with substantial dissociation by 6 h; extent of metabolism, arterial versus venous blood samples [3]: identical extents of metabolism; vital signs and electrocardiograms ([4]; before administration and subsequent 24 hours): normal; abnormalities of behavior or movement (AIMS, BPRS) ([4]; before or after administration): no abnormalities of behavior or movement; Electrocardiogram, blood pressure, and pulse ([4]; during each study, twelve healthy adults): did not change; Conclusion: safety and efficacy ([4]; humans, smokers, nonsmokers, secondhand smoke exposure, current study): • 5-[^123I]IA is safe, efficacious in humans (smokers, nonsmokers, people with secondhand smoke exposure; binding affinity relative to (−)-nicotine (α4β2* nAChRs [5]): seven times greater; binding affinity relative to A-85380 (α4β2* nAChRs [5]): comparable to A-85380; regional brain uptake (α4β2* nAChRs [6]): high uptake in the thalamus, moderate uptake in the cortex, and low uptake in the cerebellum; Conclusion: safety and efficacy (α4β2* nAChRs [7]): 5-[^123 I]IA is safe and efficacious for brain imaging in monkeys.; Conclusion: safety and efficacy (α4β2* nAChRs [8]): • 5-[^123I]IA is safe, efficacious in a marmoset.; Conclusion: regional uptake (α4β2* nAChRs [9]; baboon, ref Baldwin et al., 2006): • Uptake high in thalamus, moderate in cortex and basal ganglia, low in cerebellum. SPECT brain radioactivity represents5-[^123I]IA distribution; Conclusion: safety and efficacy (α4β2* nAChRs [9]; ref Fujita et al., 2000): 5-[^123I]IA is safe, efficacious in baboons.; Conclusion: metabolism and plasma protein binding by sex (α4β2* nAChRs [10]; 29 nonsmokers, ref Cosgrove et al., 2007): greater in women than in men; Conclusion: safety and efficacy (α4β2* nAChRs [10]; ref Fujita et al., 2002): • 5-[^123I]IA is safe, efficacious in humans.; Conclusion: safety and efficacy (α4β2* nAChRs [10]; ref Ishizu et al., 2004): • 5-[^123I]IA is safe, efficacious in humans.; Conclusion: safety and efficacy (α4β2* nAChRs [10]; ref Mamede et al., 2004): • 5-[^123I]IA is safe, efficacious in humans.; Conclusion: safety and efficacy (α4β2* nAChRs [10]; ref Staley et al., 2005): • 5-[^123I]IA is safe, efficacious in humans.; Conclusion: safety and efficacy (α4β2* nAChRs [10]; ref Ueda et al., 2004): • 5-[^123I]IA is safe, efficacious in humans.

Question: With `[18F]c1ccc([C@@H]2C[C@H]3CCC[C@@H]2N3)cn1` [(−)-[^18F]NCFHEB, [^18F]norchloro-fluoro-homoepibatidine] as the compound, how does the “Conclusion: attainment of equilibrium” value (α4β2* nAChRs [11]) read?
Answer: • (−)-[^18F]NCFHEB attains equilibrium before 2-[^18F]FA
